# Where a SMILES comes first, the peptide text is derived from it. The star is where a group is joined. Cbz = O=C(OCc1ccccc1)*; CH2F = FC*
# Assays:
# Caspase 3 = Caspase 3 protease activity in Colo-205 cell lysates (DEVD-pNA); format: cell-based, human
# Protocol: (§1) In certain assays, cells are pre-treated with 20 uM of the pan-caspase inhibitor, ZVAD-fmk (RnD Systems), 1 hr prior to stimulation with TRAIL or control agents.
# Colo-205 cells [1] = assay: DNA fragmentation (apoptosis) ELISA in Colo-205 cells; format: cell-based, human
# Description: Apoptosis, e.g. […]
# DNA fragmentation is quantitated by a photometric enzyme-immunoassay (Cell Death Detection ELISA Assay, Roche) for measuring cytoplasmic histone-associated nucleosomes according to the manufacturer's protocols. % Apoptosis is defined as relative increase in DNA fragmentation in treated vs. control cells calculated by [O.D. Treated−background]/[Maximal O.D.−Background].
# Caspase 8 = Caspase 8 protease activity in Colo-205 cell lysates (IETD-pNA); format: cell-based, human
# Protocol: as §1
# [2] = test system: HT29 colorectal tumor cells; assay: Chemosensitization of HT29 colon cancer cells to TRAIL; format: cell-based, human
# Protocol: FIGS. 17A–C show augmentation of sTRAIL-induced HT29 colon cancer cytotoxicity by chemotherapy sensitization.
# (§2) Tumor cells are plated at 1e4 cells per well in 96-well plates and incubated overnight at 37 C after which time the cells are left untreated or treated with the indicated sub-toxic doses of chemotherapeutic agents. After 24 hr, the cells are left untreated, or treated with sub-toxic doses of recombinant human TRAIL or AAV-produced TRAIL for an additional 24, 48 or 72 hr. Cell viability is evaluated using a tetrazolium-salt (WST-8) based proliferation assay (Cell Counting Kit-8, Dojindo Laboratories, Japan) according to the manufacturer's recommendations. % Cytotoxicity/Growth Inhibition was defined as [1-(OD treated−background)/(OD untreated−background)×100].
# (§3) The specificity of TRAIL-induced cell death was tested in a variety of tumor and normal cells. […] The combinatorial cytotoxic effects of TRAIL and chemotherapy were tested in a panel of tumor cells.
# [3] = test system: colorectal tumor cell lines (HT29, HCT-116, Colo-205); assay: Combination of sTRAIL and COX inhibitors in colorectal tumor cell lines; format: cell-based, human; conditions: combined with high doses of SC-560 and Celebrex
# Protocol: as §3
# Colo-205 cells [4] = assay: Colo-205 growth inhibition/viability, WST-8 tetrazolium assay; format: cell-based, human; conditions: 24, 48 and 72 hr treatment, FIG. 10B/10C
# Protocol: Cell proliferation was evaluated using a WST-8-based tetrazolium salt viability assay using the formulas: % Viability=[OD (sTRAIL) treated−background]/[OD (GFP) untreated−background]×100 and % Growth Inhibition=[1-(OD treated−background)/OD untreated−background)]×100.
# human tumor cell lines = assay: Sensitivity of tumor cell lines to TRAIL, WST-8 cytotoxicity assay; format: cell-based; conditions: human tumor cell lines from diverse tissues; 24 hr; FIG. 14
# Protocol: Briefly, 1e4 tumor cells (ATCC), or normal primary cells (BioWhittaker), are seeded in one well of a 96-well titer plate and incubated overnight at 37° C. Cells are then treated with the test or control agents for 24, 48 or 72 hr. Following treatment, cell viability is evaluated using a tetrazolium-salt (WST-8) based proliferation assay (Cell Counting Kit-8, Dojindo Laboratories, Japan) according to the manufacturer's recommendations. % Cytotoxicity/Growth inhibition is defined as [1-(OD treated−background)/(OD untreated−background)×100].
# as §3
# [5] = test system: A549 lung carcinoma, U87MG glioma, MCF7 breast carcinoma, PC-3 prostate carcinoma; assay: Chemosensitization of tumor cells to TRAIL; format: cell-based, human; conditions: A549+cisplatin, U87MG+etoposide, MCF-7+doxorubicin, PC-3+doxorubicin; 24 hr pre-treatment with sub-toxic doses, then 24 hr TRAIL
# Protocol: FIGS. 16A–D show augmentation of sTRAIL-induced tumor cell cytotoxicity by chemotherapy sensitization 1 e4 tumor cells were pretreated with genotoxic agents for 24 hr to sensitize, then subsequently treated with sTRAIL for 24 hr. Viability was measured by WST-8 tetrazolium salt assay after 24 hr sTRAIL treatment and % Growth inhibition=[1-(OD treated−background)/(OD untreated−background)×100].
# as §2, §3
# [6] = test system: VEGF induced vessel sprouting; assay: Chick chorioallantoic membrane (CAM) assay; format: in vivo; conditions: 25 ng VEGF with 0.1, 1 and 10 ng protein from conditioned media; 72 hr
# Protocol: FIG. 4 illustrates the results of experiments that show PF4 and PF4(DLR) reduce VEGF stimulated angiogenesis in the chick chorioallantoic membrane (CAM) assay. Hyrdocortisone-containing filter disks were soaked with 25 ng of VEGF together with 0.1 ng, 1 ng and 10 ng of PF-4 or PF-4(DLR) derived from conditioned media. AAV-null, 293 cell supernatant and an internal PF-4 protein standard, PF4-Blast, were included in the assay as separate controls. Filter disks were aseptically placed on top of the chorioallantoic membranes of 11 day chick embryos. 72 hours after incubation the CAMs were surgically removed, fixed and the number of vessel sprouts determined by stereomicroscopy.
# Hydrocortisone-containing filter discs are soaked with 25 ng Vascular Endothelium Growth Factor (VEGF) (R&D Systems, Minneapolis, Minn.) together with the indicated doses of conditioned media from control or vector transduced cells, and aseptically placed on top of the chorioallantoic membranes of 11 day old chick embryos. After 72 hr incubation, the CAMs are surgically removed, fixed and the discs are analyzed for VEGF-induced angiogenesis by stereomicroscopy. The mean number (+/−SEM) of branch points occurring in the new blood vessel sprouts beneath the applied filter disc from the treated CAMs is enumerated from multiple (n=8–10) samples. […]
# [7] = Colo-205 cells pre-incubated with 20 uM inhibitor
# [8] = Colo-205 cells, 4 hr incubation
molecule,measurement,setting,value
COC(=O)C[C@H](NC(=O)[C@H](C)NC(=O)[C@@H](NC(=O)OCc1ccccc1)C(C)C)C(=O)CF [ZVAD-fmk] (Cbz-Val-Ala-Asp(OMe)-CH2F),Effect on TRAIL-induced caspase 3 protease activity,Caspase 3; [7],blocking of TRAIL-induced caspase protease activity
same,Effect on sTRAIL induced DNA fragmentation,"Colo-205 cells [1]; Colo-205 cells pre-incubated with increasing amounts of inhibitor, 6 hr after sTRAIL treatment",prevents sTRAIL induced DNA fragmentation in a dose-dependent manner
same,Effect on TRAIL-induced caspase 8 protease activity,Caspase 8; [7],blocking of TRAIL-induced caspase protease activity
TRAIL,Cytotoxic effect combined with chemotherapy,"[2]; combined with sub-toxic doses of doxorubicin, cisplatin, or camptothecin",synergistic cytotoxic effect
same,Cell death with TRAIL alone,[2]; sub-optimal doses of TRAIL,refractory to cell death
same,Cytotoxic activity combined with cyclo-oxygenase-2 inhibitors,[3],synergistic cytotoxic activity
recombinant human TRAIL: recombinant human TRAIL purchased from a commercial vendor (RnD Systems),Induction of caspase 3 protease activity,Caspase 3; [8],Dose-dependent induction
same,50% effective dose (ED50) for induction of apoptosis (DNA fragmentation),"Colo-205 cells [1]; Colo-205 cells, 6 hr incubation (sTRAIL 6, 16 and 24 hr), FIG. 11",approximately 1 ng/ml
same,50% effective dose of Colo-205 growth inhibition,Colo-205 cells [4],approximately 0.5 ng/ml
same,Induction of caspase 8 protease activity,Caspase 8; [8],Dose-dependent induction
same,Cytotoxicity in tumor cell lines,human tumor cell lines,cytotoxicity was observed in a wide spectrum of human tumor cell lines
same,Cytotoxic effect combined with chemotherapy,[5],augmented cytotoxic effect
"PF-4: platelet factor-4 from conditioned media of transfected 293 cells (SEQ ID NO:7) (protein, platelet factor-4) MSSAAGFCASRPGLLFLGLLLLPLVVAFASAEAEEDGDLQCLCVKTTSQVRPRHITSLEVIKAGPHCPTAQLIATLKNGRKICLDLQAPLYKKIIKKLLES",VEGF induced vessel sprouting,[6],blockage of VEGF induced vessel sprouting
"PF-4(DLR): platelet factor-4 with the DLR mutation (SEQ ID NO:9) from conditioned media (protein, platelet factor-4 with DLR mutation) MSSAAGFCASRPGLLFLGLLLLPLVVAFASAEAEEDGDLQCLCVKTTSQVRPRHITSLEVIKAGPHCPTAQLIATLKNGRKICLDLRAPLYKKIIKKLLES",VEGF induced vessel sprouting,[6],blockage of VEGF induced vessel sprouting

# From patent publication US7186699B2, “Method for treating cancer by vector-mediated delivery of one or more anti-angiogenic or pro-apoptotic genes” (Cell Genesys, Inc., priority 2003, dated 2007)
